According to patent publication US20240101540A1, “TARGETED PROTEIN DEGRADATION OF PARP14 FOR USE IN THERAPY” (Ribon Therapeutics, Inc., priority 2022, published 2024):
Read-outs that look alike come from different tables or passages of the source.

Target: T1, HiBiT tagged PARP14 (Homo sapiens, UniProt Q460N5)
T1 construct: engineered to contain a HiBiT tag on both alleles of the PARP14 gene; endogenous in cells; host or cells: Jurkat cells stably transfected with LgBiT (Promega), PARP14 locus edited by CRISPR/Cas9
T1 sequence (Q460N5 whole entry): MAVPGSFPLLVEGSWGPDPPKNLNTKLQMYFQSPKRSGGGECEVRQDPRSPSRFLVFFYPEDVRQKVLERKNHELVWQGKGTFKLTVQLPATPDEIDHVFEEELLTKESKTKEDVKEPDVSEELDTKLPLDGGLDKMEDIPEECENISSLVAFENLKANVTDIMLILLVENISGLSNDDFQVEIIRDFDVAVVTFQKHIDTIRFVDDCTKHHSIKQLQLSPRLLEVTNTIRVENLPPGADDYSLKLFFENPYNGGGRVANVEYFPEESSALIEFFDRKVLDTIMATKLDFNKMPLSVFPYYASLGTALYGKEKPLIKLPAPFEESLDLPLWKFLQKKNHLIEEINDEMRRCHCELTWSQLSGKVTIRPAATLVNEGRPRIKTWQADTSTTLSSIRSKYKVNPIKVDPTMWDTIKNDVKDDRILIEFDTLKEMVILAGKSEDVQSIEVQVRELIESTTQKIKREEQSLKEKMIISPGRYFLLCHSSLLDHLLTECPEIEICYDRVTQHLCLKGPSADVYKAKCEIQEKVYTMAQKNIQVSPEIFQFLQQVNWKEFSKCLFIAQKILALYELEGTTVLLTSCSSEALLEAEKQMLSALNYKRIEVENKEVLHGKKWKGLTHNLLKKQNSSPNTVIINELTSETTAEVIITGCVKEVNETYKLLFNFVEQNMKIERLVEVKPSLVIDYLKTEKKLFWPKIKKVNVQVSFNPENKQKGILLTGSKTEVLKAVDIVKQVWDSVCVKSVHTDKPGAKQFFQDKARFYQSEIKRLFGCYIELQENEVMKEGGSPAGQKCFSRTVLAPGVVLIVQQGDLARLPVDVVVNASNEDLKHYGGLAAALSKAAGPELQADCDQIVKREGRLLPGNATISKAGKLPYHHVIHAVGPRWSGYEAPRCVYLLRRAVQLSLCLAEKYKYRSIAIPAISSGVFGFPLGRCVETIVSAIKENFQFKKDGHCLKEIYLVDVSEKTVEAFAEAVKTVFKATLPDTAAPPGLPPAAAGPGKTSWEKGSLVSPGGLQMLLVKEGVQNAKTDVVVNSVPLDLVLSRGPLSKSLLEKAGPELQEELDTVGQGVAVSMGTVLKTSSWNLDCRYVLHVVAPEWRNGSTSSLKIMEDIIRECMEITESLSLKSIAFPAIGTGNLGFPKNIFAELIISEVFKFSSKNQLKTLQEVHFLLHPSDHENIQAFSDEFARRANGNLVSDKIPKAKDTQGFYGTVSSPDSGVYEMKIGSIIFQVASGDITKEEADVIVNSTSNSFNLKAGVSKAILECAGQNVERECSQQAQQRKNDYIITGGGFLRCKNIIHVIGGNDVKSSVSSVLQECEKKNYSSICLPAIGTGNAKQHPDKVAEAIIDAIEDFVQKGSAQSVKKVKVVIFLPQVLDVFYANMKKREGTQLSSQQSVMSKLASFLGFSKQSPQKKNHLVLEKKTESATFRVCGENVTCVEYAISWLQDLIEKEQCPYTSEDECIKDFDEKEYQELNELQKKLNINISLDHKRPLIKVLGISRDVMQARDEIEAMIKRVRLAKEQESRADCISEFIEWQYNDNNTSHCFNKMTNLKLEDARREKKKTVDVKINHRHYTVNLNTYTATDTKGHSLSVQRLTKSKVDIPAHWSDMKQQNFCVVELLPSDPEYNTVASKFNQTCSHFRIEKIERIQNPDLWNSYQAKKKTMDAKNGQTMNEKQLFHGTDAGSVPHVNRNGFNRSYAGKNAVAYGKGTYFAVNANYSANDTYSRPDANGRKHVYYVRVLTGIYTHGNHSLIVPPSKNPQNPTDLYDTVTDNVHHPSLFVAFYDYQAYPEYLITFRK
Experiment: HiBiT assay for the degradation of PARP14 (HiBiT tagged PARP14 in LgBiT expressing Jurkat cells, 2 or 24 hours)
Type: cell-based
Settings: Assay B (Example B): HiBiT tagged PARP14 degradation in LgBiT expressing Jurkat cells
Method: Jurkat cells stably transfected with LgBiT (Promega) were engineered to contain a HiBiT tag on both alleles of the PARP14 gene (Genbank Accession Number: NM_017554) via CRISPR/Cas9 editing. The HiBiT tag is an 11 amino acid tag created by Promega that associates with LgBiT protein to form the NanoLuc® tag on the C-terminus of PARP14. Clones were isolated and confirmed for the HiBiT tag via Sanger sequencing.
Degradation of PARP14 protein was assessed by measuring the luminescence of the HiBiT tag associating with the LgBiT protein as a proxy for the PARP14 protein.
Jurkat cells were diluted to 250,000 cells per mL and then added to assay plate (Corning 3574) using a Multidrop (Thermo Fisher) to add 20 μL per well of the 384 well plate, resulting in 5,000 cells per well. 20 nL of a dose response curve diluted in DMSO of each test compound was added to the cell plate using a Mosquito (TTP Labtech) and the plate was incubated at 37° C. for 2 or 24 hours. Assay plate was brought to room temperature then 5 μL per well of Live Cell Substrate (Promega) was added to the plate. Luminescence was measured on an Envision (Perkin Elmer).
The average DMSO was calculated from 32 wells containing 0.1% DMSO only in columns 12 and 24 of the assay plate. The % of DMSO values were calculated as described below: […]
The % of DMSO values were plotted as a function of compound concentration and the following 4-parameter fit was applied to derive the DC50 values:
where top, bottom, and Hill Coefficient are allowed to float. Y is the % of DMSO and X is the compound concentration.
DC50 data for the Example compounds is provided below in Table 2 (“+” is ≤0.03 μM; “++” is ≥0.03 μM).

| DC50 (read-out: DC50) [µM] | SMILES | DC50 [µM] |
| --- | --- | --- |
|  | O=C1CCC(Nc2ccc(N3CCN(CCN4CCC(COc5cc(F)c6c(=O)[nH]c(COC7CCOCC7)nc6c5)CC4)CC3)c(F)c2)C(=O)N1 (racemic) [Example 99, 3-((3-fluoro-4-(4-(2-(4-(((5-fluoro-4-oxo-2-(((tetrahydro-2H-pyran-4-yl)oxy)methyl)-3,4-dihydroquinazolin-7-yl)oxy)methyl)piperidin-1-yl)ethyl)piperazin-1-yl)phenyl)amino)piperidine-2,6-dione] | < 0.03 |
| < 0.03 | O=C1CCC(Nc2ccc(N3CCN(CCN4CCC(COc5cc(F)c6c(=O)[nH]c(CSC7CCOCC7)nc6c5)CC4)CC3)c(F)c2)C(=O)N1 (single isomer, unassigned) [Example 64a, 3-((3-fluoro-4-(4-(2-(4-(((5-fluoro-4-oxo-2-(((tetrahydro-2H-pyran-4-yl)thio)methyl)-3,4-dihydroquinazolin-7-yl)oxy)methyl)piperidin-1-yl)ethyl)piperazin-1-yl)phenyl)amino)piperidine-2,6-dione] |  |
| < 0.03 | O=C1CCC(Nc2ccc(N3CCN(CCN4CCC(COc5cc(F)c6c(=O)[nH]c(CSC7CCOCC7)nc6c5)CC4)CC3)c(F)c2)C(=O)N1 (single isomer, unassigned) [Example 64b, 3-((3-fluoro-4-(4-(2-(4-(((5-fluoro-4-oxo-2-(((tetrahydro-2H-pyran-4-yl)thio)methyl)-3,4-dihydroquinazolin-7-yl)oxy)methyl)piperidin-1-yl)ethyl)piperazin-1-yl)phenyl)amino)piperidine-2,6-dione] |  |
| < 0.03 | O=C1CCC(Nc2ccc(N3CCC(N4CC(N5CCC(COc6cc(F)c7c(=O)[nH]c(CSC8CCOCC8)nc7c6)CC5)C4)CC3)c(F)c2)C(=O)N1 (single isomer, unassigned) [Example 116a, 3-((3-fluoro-4-(4-(3-(4-(((5-fluoro-4-oxo-2-(((tetrahydro-2H-pyran-4-yl)thio)methyl)-3,4-dihydroquinazolin-7-yl)oxy)methyl)piperidin-1-yl)azetidin-1-yl)piperidin-1-yl)phenyl)amino)piperidine-2,6-dione] |  |
| < 0.03 | O=C1CCC(Nc2ccc(N3CCC(N4CC(N5CCC(COc6cc(F)c7c(=O)[nH]c(CSC8CCOCC8)nc7c6)CC5)C4)CC3)c(F)c2)C(=O)N1 (single isomer, unassigned) [Example 116b, 3-((3-fluoro-4-(4-(3-(4-(((5-fluoro-4-oxo-2-(((tetrahydro-2H-pyran-4-yl)thio)methyl)-3,4-dihydroquinazolin-7-yl)oxy)methyl)piperidin-1-yl)azetidin-1-yl)piperidin-1-yl)phenyl)amino)piperidine-2,6-dione] |  |

| SMILES | DC50 (read-out: DC50) [µM] | DC50 [µM] |
| --- | --- | --- |
| O=C1CCC(Nc2ccc(N3CCN(CCN4CCC(COc5cc(F)c6c(=O)[nH]c(COC7CCOCC7)nc6c5)CC4)CC3)c(F)c2)C(=O)N1 (single isomer, unassigned) [Example 99a, 3-((3-fluoro-4-(4-(2-(4-(((5-fluoro-4-oxo-2-(((tetrahydro-2H-pyran-4-yl)oxy)methyl)-3,4-dihydroquinazolin-7-yl)oxy)methyl)piperidin-1-yl)ethyl)piperazin-1-yl)phenyl)amino)piperidine-2,6-dione] | < 0.03 |  |
| O=C1CCC(Nc2ccc(N3CCN(CCN4CCC(COc5cc(F)c6c(=O)[nH]c(COC7CCOCC7)nc6c5)CC4)CC3)c(F)c2)C(=O)N1 (single isomer, unassigned) [Example 99b, 3-((3-fluoro-4-(4-(2-(4-(((5-fluoro-4-oxo-2-(((tetrahydro-2H-pyran-4-yl)oxy)methyl)-3,4-dihydroquinazolin-7-yl)oxy)methyl)piperidin-1-yl)ethyl)piperazin-1-yl)phenyl)amino)piperidine-2,6-dione] | < 0.03 |  |
| O=C1CCC(Nc2ccc(N3CCC(N4CCC(COc5cc(F)c6c(=O)[nH]c(CCC7CCOCC7)nc6c5)CC4)CC3)c(F)c2)C(=O)N1 (single isomer, unassigned) [Example 117a, 3-((3-fluoro-4-(4-(((5-fluoro-4-oxo-2-(2-(tetrahydro-2H-pyran-4-yl)ethyl)-3,4-dihydroquinazolin-7-yl)oxy)methyl)-[1,4′-bipiperidin]-11′-yl)phenyl)amino)piperidine-2,6-dione] | < 0.03 |  |
